Data reported in patent US8329863B2, “Gonadotropin releasing hormone antagonists” (Oakwood Laboratories, LLC, priority 2004, dated 2012).
Where two headings read alike, the source gives them in different places. Square brackets hold non-standard residues; d marks the D form. Peptide text beside a SMILES is read from it. * marks the point of attachment. dPhe(4-Cl) = N[C@H](Cc1ccc(Cl)cc1)C(=O)O; Nicotinoyl(6-NH2) = Nc1ccc(C(=O)*)cn1; d1Nal = N[C@H](Cc1cccc2ccccc12)C(=O)O; Lys(iPr) = CC(C)NCCCC[C@H](N)C(=O)O; d3Pal = N[C@H](Cc1cccnc1)C(=O)O; Picolinoyl = O=C(c1ccccn1)*; dOrn = NCCC[C@@H](N)C(=O)O

Assays:
[1] = Water solubility at room temperature; assay type: physicochemical
Procedure: Solubility of the novel GnRH antagonist was compared with that of orntide acetate at room temperature. In this experiment, 50 mg of the novel GnRH antagonist was weighed into a small glass container and 2 mL of purified water was added to it. […] An additional 3 mL of water was added, the solution mixed, and the pH was determined: 5.4. The same procedure was used to test the solubility of orntide acetate (known in the art as ornirelix).
Separately, another 50 mg aliquot was weighed out and 1 ml of water was added. This also dissolved. This is 50 mg/mL in concentration, which is 10 times what is possible to dissolve with orntide acetate.

testosterone = experiment: Testosterone suppression in vivo in the standard experimental rat model; design: species or system male Sprague Dawley rats; settings: subcutaneous
Procedure: Briefly, male Sprague Dawley rats weighing approximately 300 g were purchased from Harlan (Indianapolis, Ind.) and used immediately after the quarantine period required by a University of Kentucky Animal Research Facility approved protocol.
The evaluation was conducted in two groups of rats. Group 1 included 6 rats to be administered with the novel GnRH antagonist. The other group was a control group consisting of 2 rats. The novel GnRH antagonist was administered subcutaneously (scapulae). Blood samples (1 mL) for testosterone level determinations were collected from the tail vein at 0, 1, 3, 6, 12, 24, and 48 hours. Serum was extracted by centrifugation at 2000 rpm for 15 min and stored at −20 C until determination of testosterone/LH levels. Rat plasma testosterone was determined using Active™ Testosterone RIA DSL-4000 kits purchased from Diagnostic Systems, Inc. Webster, Tex. To effect a sufficient washout period the doses were administered at weekly intervals.
A total of six rats were used for each dose tested. In the first week, each rat received a single dose of 15 μg. In the second week, the dose increased to 30 μg. Next, in the third week, each rat received a single dose of 60 μg. Table 2 is the control rat group with a total of 2 rats that received only vehicle.

Row | solubility ([1]; aqueous media, even at a pH lower than 5, read-out: solubility in aqueous media) [µg/mL] | solubility ([1]; water, pH 5, at a pH of 5, read-out: water solubility) [µg/mL] | Compound | gelling in aqueous media ([1]; at concentrations less than 5 mg/mL) | time to dissolve ([1]; 50 mg in 2 mL purified water, relatively gentle mixing, room temperature) | pH of the solution ([1]; 50 mg in 5 mL water (10 mg/mL)) | testosterone level reached after the castration period (testosterone; 15 μg/rat, after about 12 hours) [ng/mL] | duration of chemical castration of testosterone (≦0.5 ng/ml) (testosterone; 15 μg/rat, single dose) | serum testosterone level at 6 hours (testosterone; 15 μg/rat, single dose, week 1, mean of 6 rats) [ng/mL] | testosterone level by 24 hours (testosterone; 30 μg/rat, single dose) | duration of testosterone suppression (testosterone; 30 μg/rat, single dose, week 2)
1 | < 5000 | < 5000 | CC(=O)N[C@H](Cc1cccc2ccccc12)C(=O)N[C@H](Cc1ccc(Cl)cc1)C(=O)N[C@H](Cc1cccnc1)C(=O)N[C@@H](CO)C(=O)N[C@@H](CCCCNC(=O)c1ccccn1)C(=O)N[C@H](CCCNC(=O)c1ccc(N)nc1)C(=O)N[C@@H](CC(C)C)C(=O)N[C@@H](CCCCNC(C)C)C(=O)N1CCC[C@H]1C(=O)N[C@H](C)C(N)=O [orntide acetate, DNal^1, DpCIPhe^2, D3Pal^3 Ser^4, PicLys^5, D(6ANic)Orn^6, Leu^7, IprLys^8, Pro^9, DAla^10-NH2] (Ac-[d1Nal][dPhe(4-Cl)][d3Pal]SK(Picolinoyl)[dOrn](Nicotinoyl(6-NH2))L[Lys(iPr)]P[dA]-NH2; N-terminus and C-terminus assumed) | tends to gel even at that low concentration | – | – | – | – | – | – | –
2 | – | – | AcDNal^1, DpCIPhe^2, D3Pal^3 Ser^4, NicLys^5, D(6ANic)Orn^6, Leu^7, IprLys^8, Pro^9, DAla^10NH2 [novel GnRH antagonist] | – | less than 30 seconds | 5.4 | 1.5 | about 12 hours | 0.2 | greater than 0.5 ng/mL | at least 12 hours
